Blank lines part the entries; values can stand above or below the molecule they belong to.
What was measured:
[1] = tested on: EGFR (human), P00533 [L747-T751del,Sins]; conditions: 10.0 µM
[2] = tested on: EGFR (human), P00533 [G719C]; conditions: 10.0 µM
[3] = tested on: EGFR (Human), P00533 [T790M/L858R]; conditions: 10.0 µM
[4] = tested on: EGFR (human), P00533 [G719S]; conditions: 10.0 µM
[5] = tested on: EGFR (human), P00533 [L858R]; conditions: 10.0 µM
[6] = tested on: EGFR (human), P00533 [E746-A750del]; conditions: 10.0 µM
EGFR (human) = EGFR (human) (UniProt P00533); conditions: for activity: 10.0 µM
[7] = tested on: EGFR (human), P00533 [S752-I759del]; conditions: 10.0 µM
PIK3CA (human) = PIK3CA (human) (UniProt P42336); experiment: Enzyme Assay; conditions: 10.0 µM
PIK3CG (human) = PIK3CG (human) (UniProt P48736); experiment: Enzyme Assay; conditions: 10.0 µM
[8] = tested on: PIK3CA (human), P42336 [E545K]; experiment: Enzyme Assay; conditions: 10.0 µM
MAPK14 (human) = MAPK14 (human) (UniProt Q16539); experiment: Enzyme Assay; conditions: for activity: 10.0 µM
ROCK2 (human) = ROCK2 (human) (UniProt O75116); experiment: Enzyme Assay; conditions: 10.0 µM
[9] = tested on: PIK3CA (human), P42336 [C420R]; experiment: Enzyme Assay; conditions: 10.0 µM
[10] = tested on: PIK3CA (human), P42336 [H1047Y]; experiment: Enzyme Assay; conditions: 10.0 µM
CDK2 (human) = CDK2 (human) (UniProt P24941); experiment: Enzyme Assay; conditions: for activity: 10.0 µM
PIK3CB (Human) = PIK3CB (Human) (UniProt P42338); experiment: Enzyme Assay; conditions: 10.0 µM
[11] = tested on: PIK3CA (human), P42336 [Q546K]; experiment: Enzyme Assay; conditions: 10.0 µM
[12] = tested on: PIK3CA (human), P42336 [I800L]; experiment: Enzyme Assay; conditions: 10.0 µM
[13] = tested on: PIK3CA (human), P42336 [M1043I]; experiment: Enzyme Assay; conditions: 10.0 µM
PIK3CD (Human) = PIK3CD (Human) (UniProt O00329); experiment: Enzyme Assay; conditions: 10.0 µM
[14] = tested on: PIK3CA (human), P42336 [H1047L]; experiment: Enzyme Assay; conditions: 10.0 µM
[15] = tested on: PIK3CA (human), P42336 [E545A]; experiment: Enzyme Assay; conditions: 10.0 µM
[16] = tested on: PIK3CA (human), P42336 [E542K]; experiment: Enzyme Assay; conditions: 10.0 µM
[17] = tested on: EGFR (human), P00533 [T790M]; conditions: 10.0 µM
[18] = tested on: EGFR (human), P00533 [L747-E749del, A750P]; conditions: 10.0 µM
[19] = tested on: EGFR (human), P00533 [L861Q]; conditions: 10.0 µM
[20] = tested on: EGFR (human), P00533 [L747-S752del, P753S]; conditions: 10.0 µM

Sequence of MAPK14 (human) (Q16539 whole entry, looked up): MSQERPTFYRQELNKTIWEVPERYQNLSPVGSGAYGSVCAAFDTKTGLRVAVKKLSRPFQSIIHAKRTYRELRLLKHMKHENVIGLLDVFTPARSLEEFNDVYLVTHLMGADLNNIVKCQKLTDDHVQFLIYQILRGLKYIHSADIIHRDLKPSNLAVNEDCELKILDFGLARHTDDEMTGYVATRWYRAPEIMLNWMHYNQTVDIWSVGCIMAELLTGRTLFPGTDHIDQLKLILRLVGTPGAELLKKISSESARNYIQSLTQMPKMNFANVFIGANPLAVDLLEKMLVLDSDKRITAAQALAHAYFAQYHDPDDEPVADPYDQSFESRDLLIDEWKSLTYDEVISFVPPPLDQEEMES
Sequence of PIK3CA (human), P42336 [H1047Y] (P42336 whole entry H1047Y, looked up): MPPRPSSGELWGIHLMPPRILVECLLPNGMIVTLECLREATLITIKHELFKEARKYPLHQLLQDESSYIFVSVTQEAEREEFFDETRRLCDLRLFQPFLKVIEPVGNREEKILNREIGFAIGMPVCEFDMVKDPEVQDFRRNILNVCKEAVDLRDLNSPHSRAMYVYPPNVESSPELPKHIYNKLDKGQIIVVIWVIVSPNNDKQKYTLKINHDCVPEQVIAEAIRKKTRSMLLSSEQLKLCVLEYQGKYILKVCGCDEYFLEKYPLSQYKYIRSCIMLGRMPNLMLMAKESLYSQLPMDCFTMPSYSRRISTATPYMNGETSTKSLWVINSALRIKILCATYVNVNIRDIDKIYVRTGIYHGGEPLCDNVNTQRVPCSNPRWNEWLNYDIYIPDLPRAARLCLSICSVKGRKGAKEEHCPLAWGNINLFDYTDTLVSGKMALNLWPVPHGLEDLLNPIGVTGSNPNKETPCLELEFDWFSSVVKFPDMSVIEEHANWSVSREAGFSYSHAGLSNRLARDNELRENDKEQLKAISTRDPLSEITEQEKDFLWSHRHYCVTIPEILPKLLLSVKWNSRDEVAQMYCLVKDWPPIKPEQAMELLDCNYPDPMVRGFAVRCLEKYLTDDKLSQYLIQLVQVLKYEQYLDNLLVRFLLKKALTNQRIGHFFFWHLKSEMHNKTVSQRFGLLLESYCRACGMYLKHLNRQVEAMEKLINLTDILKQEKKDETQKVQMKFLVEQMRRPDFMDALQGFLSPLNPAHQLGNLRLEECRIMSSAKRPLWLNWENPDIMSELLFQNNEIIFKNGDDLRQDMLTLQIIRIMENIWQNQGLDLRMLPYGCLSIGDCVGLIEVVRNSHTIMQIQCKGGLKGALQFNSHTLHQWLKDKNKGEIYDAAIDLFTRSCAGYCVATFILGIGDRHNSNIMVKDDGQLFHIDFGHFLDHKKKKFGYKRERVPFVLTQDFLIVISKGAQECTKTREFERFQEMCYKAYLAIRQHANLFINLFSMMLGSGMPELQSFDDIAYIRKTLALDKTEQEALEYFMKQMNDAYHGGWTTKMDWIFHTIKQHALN
Sequence of PIK3CA (human), P42336 [H1047L] (P42336 whole entry H1047L, looked up): as the sequence (P42336 whole entry H1047Y, looked up) above, with Y1047L counted along it
Sequence of PIK3CA (human), P42336 [M1043I] (P42336 whole entry M1043I, looked up): as the sequence (P42336 whole entry H1047Y, looked up) above, with M1043I, Y1047H counted along it
Sequence of PIK3CA (human), P42336 [E542K] (P42336 whole entry E542K, looked up): as the sequence (P42336 whole entry H1047Y, looked up) above, with E542K, Y1047H counted along it
Sequence of PIK3CA (human), P42336 [E545K] (P42336 whole entry E545K, looked up): as the sequence (P42336 whole entry H1047Y, looked up) above, with E545K, Y1047H counted along it
Sequence of PIK3CB (Human) (P42338 whole entry, looked up): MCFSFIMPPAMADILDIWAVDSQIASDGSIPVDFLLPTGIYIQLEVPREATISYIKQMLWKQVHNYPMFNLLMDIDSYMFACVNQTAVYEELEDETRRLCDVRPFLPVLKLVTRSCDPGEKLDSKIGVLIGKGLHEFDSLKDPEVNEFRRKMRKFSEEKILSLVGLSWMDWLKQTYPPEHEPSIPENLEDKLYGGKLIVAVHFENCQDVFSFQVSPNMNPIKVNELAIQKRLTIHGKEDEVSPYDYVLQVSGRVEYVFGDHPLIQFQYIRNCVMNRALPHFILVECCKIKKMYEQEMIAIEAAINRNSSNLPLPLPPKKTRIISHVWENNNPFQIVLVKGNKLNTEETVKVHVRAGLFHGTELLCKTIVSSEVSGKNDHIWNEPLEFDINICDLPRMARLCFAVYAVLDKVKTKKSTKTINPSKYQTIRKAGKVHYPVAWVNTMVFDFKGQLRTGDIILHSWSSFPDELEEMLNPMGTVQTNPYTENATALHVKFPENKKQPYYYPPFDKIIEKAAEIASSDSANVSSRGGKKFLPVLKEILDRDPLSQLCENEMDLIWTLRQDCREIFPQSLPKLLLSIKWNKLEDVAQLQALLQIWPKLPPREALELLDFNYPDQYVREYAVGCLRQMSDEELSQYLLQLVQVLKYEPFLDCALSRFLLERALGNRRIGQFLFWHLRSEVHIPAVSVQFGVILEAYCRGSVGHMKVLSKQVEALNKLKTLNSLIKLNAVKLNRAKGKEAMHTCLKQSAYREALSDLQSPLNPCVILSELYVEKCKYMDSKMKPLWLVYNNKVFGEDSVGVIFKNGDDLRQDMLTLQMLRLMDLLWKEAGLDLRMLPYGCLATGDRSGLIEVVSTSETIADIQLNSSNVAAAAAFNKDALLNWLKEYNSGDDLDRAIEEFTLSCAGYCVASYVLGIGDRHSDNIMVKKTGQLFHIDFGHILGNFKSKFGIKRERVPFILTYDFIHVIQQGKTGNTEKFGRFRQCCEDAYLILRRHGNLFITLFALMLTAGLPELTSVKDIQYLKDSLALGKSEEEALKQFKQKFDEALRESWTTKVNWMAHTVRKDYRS
Sequence of ROCK2 (human) (O75116 whole entry, looked up): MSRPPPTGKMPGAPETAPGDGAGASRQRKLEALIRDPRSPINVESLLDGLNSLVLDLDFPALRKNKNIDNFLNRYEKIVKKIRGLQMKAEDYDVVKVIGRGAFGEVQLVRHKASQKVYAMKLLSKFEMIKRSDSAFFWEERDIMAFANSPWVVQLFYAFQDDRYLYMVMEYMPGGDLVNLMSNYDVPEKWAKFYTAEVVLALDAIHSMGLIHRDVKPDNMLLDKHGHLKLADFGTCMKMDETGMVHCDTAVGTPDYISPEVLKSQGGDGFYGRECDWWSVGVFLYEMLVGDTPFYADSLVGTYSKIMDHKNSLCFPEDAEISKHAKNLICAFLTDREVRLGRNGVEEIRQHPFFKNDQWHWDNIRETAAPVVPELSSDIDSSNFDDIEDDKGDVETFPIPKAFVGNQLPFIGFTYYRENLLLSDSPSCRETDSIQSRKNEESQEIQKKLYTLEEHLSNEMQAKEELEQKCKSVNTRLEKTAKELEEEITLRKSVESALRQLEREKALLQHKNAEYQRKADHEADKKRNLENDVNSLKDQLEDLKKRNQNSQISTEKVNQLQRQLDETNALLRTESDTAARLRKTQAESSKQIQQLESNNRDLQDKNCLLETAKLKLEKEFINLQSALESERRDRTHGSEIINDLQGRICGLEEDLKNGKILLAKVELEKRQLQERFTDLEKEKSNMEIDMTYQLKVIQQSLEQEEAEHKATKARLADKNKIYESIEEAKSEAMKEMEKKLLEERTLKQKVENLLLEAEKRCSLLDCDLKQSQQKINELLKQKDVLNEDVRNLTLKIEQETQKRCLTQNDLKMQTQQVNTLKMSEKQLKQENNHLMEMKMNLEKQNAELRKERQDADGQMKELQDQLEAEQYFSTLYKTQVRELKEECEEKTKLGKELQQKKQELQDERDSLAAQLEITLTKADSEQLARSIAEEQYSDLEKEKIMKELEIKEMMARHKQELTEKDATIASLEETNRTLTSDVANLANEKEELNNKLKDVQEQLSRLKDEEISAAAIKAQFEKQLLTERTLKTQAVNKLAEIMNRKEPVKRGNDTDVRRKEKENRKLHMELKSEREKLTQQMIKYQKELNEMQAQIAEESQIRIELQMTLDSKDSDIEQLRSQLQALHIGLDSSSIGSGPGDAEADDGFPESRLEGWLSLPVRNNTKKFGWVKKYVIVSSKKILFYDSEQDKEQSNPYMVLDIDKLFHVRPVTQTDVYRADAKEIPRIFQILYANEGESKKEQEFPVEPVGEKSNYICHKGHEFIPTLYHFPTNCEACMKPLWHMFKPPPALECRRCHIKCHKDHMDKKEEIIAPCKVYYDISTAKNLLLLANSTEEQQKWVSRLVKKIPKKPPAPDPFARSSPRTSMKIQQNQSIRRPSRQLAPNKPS
Sequence of PIK3CA (human), P42336 [Q546K] (P42336 whole entry Q546K, looked up): as the sequence (P42336 whole entry H1047Y, looked up) above, with Q546K, Y1047H counted along it
Sequence of PIK3CA (human), P42336 [C420R] (P42336 whole entry C420R, looked up): as the sequence (P42336 whole entry H1047Y, looked up) above, with C420R, Y1047H counted along it
Sequence of PIK3CA (human), P42336 [E545A] (P42336 whole entry E545A, looked up): as the sequence (P42336 whole entry H1047Y, looked up) above, with E545A, Y1047H counted along it
Sequence of PIK3CA (human) (P42336 whole entry, looked up): as the sequence (P42336 whole entry H1047Y, looked up) above, with Y1047H counted along it
Sequence of PIK3CA (human), P42336 [I800L] (P42336 whole entry I800L, looked up): as the sequence (P42336 whole entry H1047Y, looked up) above, with I800L, Y1047H counted along it

SMILES: COc1cc2c(Nc3ccc(NC(=O)c4ccccc4)cc3)ncnc2cc1OCCCN1CCOCC1
activity [1]: 26%
activity [2]: 0%
activity [3]: 85%
activity [4]: 0%
activity [5]: 8%
activity [6]: 36%
activity (EGFR (human)): 0%
activity [7]: 14%
activity (PIK3CA (human)): 100%
activity (PIK3CG (human)): 100%
activity [8]: 98%
activity (MAPK14 (human)): 100%
activity (ROCK2 (human)): 34%
activity [9]: 68%
activity [10]: 24%
activity (CDK2 (human)): 82%
activity (PIK3CB (Human)): 81%
activity [11]: 17%
activity [12]: 100%
activity [13]: 99%
activity (PIK3CD (Human)): 100%
activity [14]: 99%
activity [15]: 19%
activity [16]: 100%
activity [17]: 42%
activity [18]: 22%
activity [19]: 6%
activity [20]: 41%

SMILES: Cc1ccc(C(=O)Nc2cccc(C(F)(F)F)c2)cc1Nc1nc(-c2cccnc2)nc2c1cnn2C
IC50 (EGFR (human)): > 10 µM

SMILES: Cc1ccc(NC(=O)c2cccc(C(C)(C)C#N)c2)cc1Nc1ccc2ncn(C)c(=O)c2c1
activity [1]: 14%
activity [2]: 49%
activity [3]: 99%
activity [4]: 37%
activity [5]: 48%
activity [6]: 15%
activity (EGFR (human)): 37%
activity [7]: 17%
activity (PIK3CA (human)): 100%
activity (PIK3CG (human)): 99%
activity [8]: 100%
activity (MAPK14 (human)): 0%
activity (ROCK2 (human)): 80%
activity [9]: 100%
activity [10]: 100%
activity (CDK2 (human)): 100%
activity (PIK3CB (Human)): 100%
activity [11]: 88%
activity [12]: 100%
activity [13]: 89%
activity (PIK3CD (Human)): 99%
activity [14]: 100%
activity [15]: 89%
activity [16]: 100%
activity [17]: 79%
activity [18]: 11%
activity [19]: 34%
activity [20]: 19%

Next, values leading:

IC50 (EGFR (human)): > 10 µM
IC50 (CDK2 (human)): > 10 µM
SMILES: O=C(Nc1ccc(OC(F)(F)F)cc1)c1sccc1NCc1ccnc2ccccc12

IC50 (MAPK14 (human)): 0.053 µM
SMILES: Cc1csc(-c2nnc(Nc3ccc(Oc4ncccc4-c4ccnc(N)n4)cc3)c3ccccc23)c1

Source: the Kinase Knowledgebase extract (Sharma et al. 2016)
